Measured values reported in publication PMC10477861, “Efficient Mining of Anticancer Peptides from Gut Metagenome” (Advanced Science, 2023).

Experiments:
Settings in all cases: 25 µM pACP, 24 h, maintenance medium 1% FBS, ratio of viability to vehicle (PBS), at least three technical repetitions
MCF7 = experiment: MTT primary screening of anticancer activity, MCF7; format: cell-based
From the text: (§1) We successfully chemically synthesized 40 pACPs for the purpose of in vitro or in vivo characterization of their potential anticancer efficacy. In the initial step, we conducted an in vitro primary screen of these 40 pACPs using a panel of 16 different cancer cell lines, including four human CRC lines (HT29, Caco2, HCT116, and […]), as well as 12 other cancer models (Table S4, Supporting Information). We deliberately selected a diverse panel of cell lines to assess the effect of pACPs across various genetic backgrounds. Briefly, the cancer cells were cultured in specific media (details provided in the Experimental Section) and then treated with pACPs at a final concentration of 25 µM. Peptides with minimum effective inhibition concentrations >25 µM were considered non‐ACPs. After exposure to pACPs, the survival rate of the cancer cells was measured using the MTT assay. Remarkably, 39 out of the 40 pACPs (97.5%) induced at least 20% inhibition in at least one cell line (Figure 3a and Table S5, Supporting Information). […] Thus, our method successfully identified pACPs with a very high rate of anticancer effects across various cancer cell lines.
(§2) To evaluate the activity of the 40 potentially effective pACPs, a panel of 16 cancer cell lines was treated, including human CRC cell lines (HT29, Caco‐2, HCT116). Details of the cell lines used, respective media, and culture conditions were presented in Table S1 (Supporting Information). Once the cells reached 60% confluence, it was incubated with each candidate peptide at a concentration of 25 µM pACPs for 24 h. Concurrently, the complete medium was replaced with a maintenance medium containing only 1% FBS. Subsequently, the viability of each cell line using the MTT Cell Proliferation and Cytotoxicity Assay Kit according to the manufacturer's instructions was assessed. […] For the CRC cell line CT26, it was calculated the CC50 value using two peptides (pACP1780 and pACP2283) with relevant data presented in Table S6 (Supporting Information). The calculation was performed using an online tool: https://www.aatbio.com/tools/ic50‐calculator.

SK-BR-3 = experiment: MTT primary screening of anticancer activity, SK-BR-3; format: cell-based
From the text: as §1, §2

Caco2 = experiment: MTT primary screening of anticancer activity, Caco2; format: cell-based, Human
From the text: as §1, §2

Hela = experiment: MTT primary screening of anticancer activity, Hela; format: cell-based, Human
From the text: as §1, §2

MDA-MB-231 = experiment: MTT primary screening of anticancer activity, MDA-MB-231; format: cell-based
From the text: as §1, §2

B16 = experiment: MTT primary screening of anticancer activity, B16; format: cell-based, Mouse
From the text: as §1, §2

EFM192A = experiment: MTT primary screening of anticancer activity, EFM192A; format: cell-based
From the text: as §1, §2

HT29 = experiment: MTT primary screening of anticancer activity, HT29; format: cell-based, Human
From the text: as §1, §2

T47D = experiment: MTT primary screening of anticancer activity, T47D; format: cell-based
From the text: as §1, §2

MDA-MB-468 = experiment: MTT primary screening of anticancer activity, MDA-MB-468; format: cell-based
From the text: as §1, §2

BT474 = experiment: MTT primary screening of anticancer activity, BT474; format: cell-based
From the text: as §1, §2

HCT116 = experiment: MTT primary screening of anticancer activity, HCT116; format: cell-based, Human
From the text: as §1, §2

MDA-MB-453 = experiment: MTT primary screening of anticancer activity, MDA-MB-453; format: cell-based
From the text: as §1, §2

MDA-MB-436 = experiment: MTT primary screening of anticancer activity, MDA-MB-436; format: cell-based
From the text: as §1, §2

CT26 = experiment: MTT primary screening of anticancer activity, CT26; format: cell-based, Murine
From the text: as §1, §2

LCC = experiment: MTT primary screening of anticancer activity, LCC; format: cell-based
From the text: as §1, §2

| Sequence | Survival rate of cancer cells in primary screening (MCF7) | Survival rate of cancer cells in primary screening (SK-BR-3) | Survival rate of cancer cells in primary screening (Caco2) | Survival rate of cancer cells in primary screening (Hela) | Survival rate of cancer cells in primary screening (MDA-MB-231) | Survival rate of cancer cells in primary screening (B16) | Survival rate of cancer cells in primary screening (EFM192A) | Survival rate of cancer cells in primary screening (HT29) | Survival rate of cancer cells in primary screening (T47D) | Survival rate of cancer cells in primary screening (MDA-MB-468) | Survival rate of cancer cells in primary screening (BT474) | Survival rate of cancer cells in primary screening (HCT116) | Survival rate of cancer cells in primary screening (MDA-MB-453) | Survival rate of cancer cells in primary screening (MDA-MB-436) | Survival rate of cancer cells in primary screening (CT26) | Survival rate of cancer cells in primary screening (LCC) |
| --- | --- | --- | --- | --- | --- | --- | --- | --- | --- | --- | --- | --- | --- | --- | --- | --- |
| NLTPPSRRATSPIFCVAKHRGGVCECPTIPQGIGEGVKGHSPFEVEG [pACP1349] | 1.00 | 1.00 | 1.00 | 1.00 | 1.00 | 0.66 | 1.00 | 1.00 | 0.62 | 1.00 | 1.00 | 1.00 | 1.00 | 1.00 | 1.00 | 1.00 |
| QESDAKKYGVGGYFQGLLSQ [pACP1529] | 1.00 | 1.00 | 1.00 | 1.00 | 1.00 | 1.00 | 1.00 | 1.00 | 0.75 | 1.00 | 1.00 | 1.00 | 1.00 | 1.00 | 1.00 | 1.00 |
| RCPCKGNTHRRYSIMFCNFDCASLLKLLCGFFGKC [pACP1621] | 1.00 | 1.00 | 1.00 | 1.00 | 1.00 | 0.79 | 0.79 | 1.00 | 0.72 | 1.00 | 1.00 | 1.00 | 1.00 | 1.00 | 1.00 | 1.00 |
| RLIVRMKTLYEKAAQMEIKIVENRFTRHEKKNKINRIKRKREK [pACP1722] | 0.31 | 0.63 | 0.70 | 0.13 | 1.00 | 0.56 | 1.00 | 0.63 | 0.29 | 1.00 | 0.14 | 1.00 | 0.11 | 0.27 | 0.35 | 1.00 |
| GLTSESVKSRCVKCLLYIKKSGATHDDNALHRTYCRNNCYRL [pACP550] | 1.00 | 1.00 | 1.00 | 1.00 | 1.00 | 0.78 | 1.00 | 1.00 | 1.00 | 1.00 | 1.00 | 1.00 | 1.00 | 1.00 | 1.00 | 1.00 |
| RVYKFVDMIGEIGHGRENHIGSGFDERLCRNGACVDCYGKYLCCRTGDYP [pACP1836] | 1.00 | 1.00 | 1.00 | 1.00 | 1.00 | 1.00 | 1.00 | 0.77 | 1.00 | 0.70 | 1.00 | 0.79 | 1.00 | 1.00 | 1.00 | 1.00 |
| YSYGYVISSCKKAGGGYAIRYVALHYVQGTKEGGGRQ [pACP2344] | 1.00 | 1.00 | 1.00 | 1.00 | 1.00 | 0.76 | 1.00 | 1.00 | 1.00 | 1.00 | 0.68 | 1.00 | 1.00 | 1.00 | 1.00 | 1.00 |
| PVCRKEKKDGKRCVARYVEHFAGKDRRMQA [pACP1505] | 1.00 | 1.00 | 1.00 | 1.00 | 1.00 | 0.78 | 1.00 | 1.00 | 0.76 | 1.00 | 1.00 | 1.00 | 1.00 | 1.00 | 1.00 | 1.00 |
| IYRKGTCADCAQGGVCTGHCSNKKTCAALKGVDKIAEDLGRGIK [pACP822] | 0.78 | 1.00 | 1.00 | 1.00 | 1.00 | 0.69 | 1.00 | 1.00 | 0.63 | 1.00 | 1.00 | 1.00 | 1.00 | 1.00 | 1.00 | 1.00 |
